Reference: patent US20080220066A1 (HENDERSON MORLEY PLC, priority 2005, published 2008)
≈ marks a conversion by molar mass, not a printed value. Where “and” joins values, the source holds several entries; their conditions need not be identical. Equal values may be shown once. Read-outs that look alike come from different tables or passages of the source.

Tests used:
[1] = system: Adenovirus; experiment: 50% plaque inhibitory concentration, Adenovirus; settings: unidentified adenovirus, A549, read-out: Digoxin IC50
[2] = system: MRC5 cells; experiment: MRC5 cell replication; settings: Frusemide 1.0 mg/ml; Digoxin 0.05 μg/ml; both at their VZV ID50 concentrations
[3] = for Flux: Q24 divided by 24
[4] = system: Cytomegalovirus; experiment: 50% plaque inhibitory concentration, Cytomegalovirus; settings: Human betaherpesvirus 5, MRC5, read-out: Digoxin IC50
[5] = system: Varicella Zoster Virus (VZV)
[6] = physchem; settings: 32 °C, aqueous with cosolvent or surfactant or cyclodextrin, thermodynamic from solid
[7] = system: MRC5 cells; experiment: MRC5 cell morphology / tolerance; settings: Frusemide 1.0 mg/ml; Digoxin 0.05 ug/ml; combined dosage at individual ID 50; 72 hours
[8] = system: feline herpesvirus
[9] = system: Varicella Zoster Virus (VZV); experiment: microbe, parasite or virus in culture; settings: Human alphaherpesvirus 3, MRC5, read-out: Digoxin IC50
[10] = Saturated solubility in solvents and co-solvent mixes at 32° C
[11] = system: MRC5 cells; settings: uninfected cells; drug(s) at VZV ID 50 concentrations
[12] = system: Herpes simplex virus (HSV); experiment: HSV standard plaque inhibition assay; type: cell-based
Excerpt: Using Herpes simplex virus (HSV), 50% plaque inhibitory dose (1D50) were established using the standard plaque inhibition assay.

[13] = system: Herpes simplex virus (HSV); experiment: HSV virus yield (infectious virus particle production); type: cell-based; settings: solvent as listed per compound; Torasemide at 90 μg/ml
[14] = Protocol: Permeation experiments were carried out using all glass Franz-type cells incorporating callous plantar skin between a donor and receptor phase. Callous cuttings of approximately 0.6 cm diameter were required to fit the customised ‘franz’ cells used. Consequently, an in vitro permeation study was conducted that used 5 cells per gel treatment, with no more than a total of 15 cells being run simultaneously. […] An infinite dose of gel (˜1 g) was added to each donor compartment via syringe and PEG400, being used as a receptor phase in each, thereby enabling adequate ‘sink’ conditions, limiting hydrodynamic boundary effects and tissue swelling effects. The applied gel was occluded with glass cover slips and the cells stirred in a thermostatically controlled water bath, maintaining the skin temperature at 32° C. […] A total of five replicates were carried our for each gel. All samples were immediately analysed by HPLC.
The breakthrough time was taken from the point at which permeant was first detected in the receptor phase (dependent on the MDL for each permeant). Lag times were calculated by extrapolating the linear section of the cumulative amount permeated (steady state flux) to the X-axis (time).

[15] = ‘Max’ Furosemide Gel Formulation

SMILES: C[C@H]1O[C@@H](O[C@H]2[C@@H](O)C[C@H](O[C@H]3[C@@H](O)C[C@H](O[C@H]4CC[C@@]5(C)[C@H](CC[C@@H]6[C@@H]5C[C@@H](O)[C@]5(C)[C@@H](C7=CC(=O)OC7)CC[C@]65O)C4)O[C@@H]3C)O[C@@H]2C)C[C@H](O)[C@@H]1O [Digoxin]
- IC50 [1]: 0.077 ± 0.022 mg/L (≈ 0.0986 µM)
- replication of uninfected MRC5 cells [2]: replicated to normal yields
- maximum concentrations observed in the receptor phase ([3]; 40:40:20 gels): 42.47 µg/mL
- Release date ([3]; Ampule Formulation): 8.1 μg cm^−2 h^0.5
- Q24 ([3]; Ampule Formulation (8% HPC)): 34 μg cm^−2
- Flux ([3]; Ampule Formulation): 1.4 μg cm^−2 h^−1
- % applied dose ([3]; Gel 1:1, pH 7): 1.6%
- Release Rate ([3]; Gel 1:1, pH 7): 3.48 μg cm^−2 h^0.5
- Flux ([3]; Gel 1:1, pH 7): 0.59 μg cm^−2 h^−1
- Q24 ([3]; Gel 1:1, prototype 40:40:20 mix, pH 7, 24 h): 14.07 μg cm^−2
- Q24 ([3]; Gel 14:1 (F:D), prototype 40:40:20 mix, […] 981NF, pH 5, 24 h): 42.47 μg cm^−2
- Flux ([3]; Gel 14:1, pH 5): 1.77 μg cm^−2 h^−1
- % applied dose ([3]; Gel 14:1, pH 5, assuming 2 g of gel in donor): 4.0%
- Release Rate ([3]; Gel 14:1, pH 5, gradient of square root of time plot): 10.18 μg cm^−2 h^0.5
- % applied dose ([3]; Gel 14:1, pH 7): 1.6%
- Flux ([3]; Gel 14:1, pH 7): 0.73 μg cm^−2 h^−1
- % applied dose ([3]; Gel 14:1, pH 9): 0.1%
- Flux ([3]; Gel 14:1, pH 9): 0.14 μg cm^−2 h^−1
- Q24 ([3]; Gel 14:1, prototype 40:40:20 mix, pH 7, 24 h): 17.62 μg cm^−2
- Q24 ([3]; Gel 14:1, prototype 40:40:20 mix, pH 9, 24 h): 3.34 μg cm^−2
- Release date ([3]; HPC Formulation): 245 μg cm^−2 h^0.5 and 243 μg cm^−2 h^0.5
- Q24 ([3]; HPC Formulation (revised 50:40:10 gel, 8% HPC, pH 5, 14:1)): 934 μg cm^−2
- Flux ([3]; HPC Formulation): 39 μg cm^−2 h^−1
- Release date ([3]; Ultrez Formulation): 274 μg cm^−2 h^0.5
- Q24 ([3]; Ultrez Formulation (revised 50:40:10 gel, […] Ultrez, pH 5, 14:1)): 1138 μg cm^−2
- Flux ([3]; Ultrez Formulation): 45 μg cm^−2 h^−1
- reduction of release rate, 1:1 Gel versus 1:14 Gel ([3]; pH 7): 1.2 fold
- IC50 [4]: 0.02 ± 0.0075 mg/L (≈ 0.0256 µM)
- VZV plaques ([5]; Digoxin 0.025 ug/ml, HIGH MOI): TNTC
- VZV plaques ([5]; Digoxin 0.025 ug/ml, INTERMEDIATE MOI): TNTC
- VZV plaques ([5]; Digoxin 0.025 ug/ml, LOW MOI, control 61): 55^
- VZV plaques ([5]; Digoxin 0.050 ug/ml, HIGH MOI): TNTC
- VZV plaques ([5]; Digoxin 0.050 ug/ml, INTERMEDIATE MOI): TNTC
- VZV plaques ([5]; Digoxin 0.050 ug/ml, LOW MOI, control 61): 21^3
- VZV plaques ([5]; Digoxin 0.100 ug/ml, HIGH MOI): 0^4
- VZV plaques ([5]; Digoxin 0.100 ug/ml, INTERMEDIATE MOI): 0^4
- VZV plaques ([5]; Digoxin 0.100 ug/ml, LOW MOI, control 61): 0^4
- VZV plaque formation inhibited by ([5]; Frusemide at 1.0 mg/ml, Digoxin at 0.05 ug/ml): 50%
- VZV plaques ([5]; High MOI (100 × Low), drug(s) at IC50): TNTC
- VZV plaques ([5]; Intermediate MOI (10 × Low), drug(s) at IC50): TNTC
- VZV plaques ([5]; Low MOI, drug(s) at IC50, Control 61): 21 and 21^5
- VZV plaque formation inhibited by ([5]; each at respective IC50, Low MOI): about 50%
- solubility at 24 h [6]: 0.433 mg/mL (≈ 554 µM)
- tolerance by MRC5 cells (morphology, replication) [7]: very well tolerated
- Virus particles per cell ([8]; each drug at its IC50, alone or both combined, No Drug 50): 0.75
- production of infectious virus reduced by ([8]; each drug at its IC50, individually or in combination): 98.5%
- remaining low level of virus replication ([8]; each drug individually at its IC50): 0.5%
- IC50 [9]: 0.02 ± 0.0075 mg/L (≈ 0.0256 µM)
- solubility in water ([10]; 32° C): relatively insoluble in water
- solubility at 24 h ([10]; 32 °C, organic solvent or mixture, thermodynamic from solid): 6.27 mg/mL (≈ 8020 µM)
- number of moles in saturated solution ([10]; 40:40:20 co-solvents mix): 0.55 μmol cm^−3
- saturation limit ([10]; 40:40:20 co-solvents mix): 433 μg cm^−3
- increase in solubility, second versus first co-solvent mix ([10]; 50:40:10 versus 40:40:20): −15 fold
- solubility in each individual solvent ([10]; ethanol, propylene glycol, PEG400, water, 32° C): highest solubility in ethanol and propylene glycol with relatively low solubility in PEG400 and water
- MRC5 cell metabolism, MTT assay [11]: normal levels of metabolism
- ICVT activity [12]: potent ICVT activity
- ID50 [12]: 60 ng per ml
- comparative ‘ICVT-ivities’ [12]: as effective as Lanoxin
- IC50 ([12]; BHK-21, read-out: Digoxin IC50): 0.03 mg/L (≈ 0.0384 µM)
- IC50 ([12]; MRC5, read-out: Digoxin IC50): 0.02 ± 0.0075 mg/L (≈ 0.0256 µM)
- IC50 ([12]; Vero, read-out: Digoxin IC50): 0.06 mg/L (≈ 0.0768 µM)
- HSV yield [13]: HSV yield reduced
- Lag time ([14]; 40:40:20 Prototype gel): 100 h
- Permeation co-efficient ([14]; 40:40:20 Prototype gel): 1.1 × 10^−3 cmhr^−1
- Steady state flux ([14]; 40:40:20 Prototype gel): 1.14 ± 0.28 μc cm^−2hr^−1
- Breakthrough time ([14]; Dig/Fur Ampule Gel Formulation): ~24 h
- Lag time ([14]; Dig/Fur Ampule Gel Formulation): 82 h
- Steady state flux ([14]; Dig/Fur Ampule Gel Formulation): 0.069 μc cm^−2hr^−1
- reduction of amount permeated, prototype versus ‘Max’ Digoxin gel ([14]; at 144 hours): 3.36 fold
- steady state of flux ([14]; prototype gel): 1.14±0.28 μg cm^−2 hr^−1
- amount permeated ([14]; prototype gel, at 144 hours): 30 μg cm^−2
- Lag time ([14]; ‘Max’ Digoxin Gel Formulation): 18 h
- Steady state flux ([14]; ‘Max’ Digoxin Gel Formulation): 1.015 μc cm^−2hr^−1
- Breakthrough time ([14]; ‘Max’ Digoxin Gel Formulation (50:40:10, 8% HPC, pH 5)): ~1 h
- steady state of flux ([14]; ‘Max’ Digoxin gel formulation): 1.015 μg cm^−2 hr^−1
- amount permeated ([14]; ‘Max’ Digoxin gel, at 144 hours): 101 μg cm^−2
- Lag time [14, 15]: 68 h
- Steady state flux [14, 15]: 0.455 μc cm^−2hr^−1
- Breakthrough time ([14]; ‘Max’ Furosemide Gel Formulation (50:20:20:10, 8% HPC, pH 5)): ~12 h
